Measured values published in patent US20260373266A1, “PROTEIN DEGRADERS AND USES THEREOF” (KYMERA THERAPEUTICS, INC., priority 2022, published 2026).

target: T1, DCAF1 WD40 domain (residues 1077-1390) (Homo sapiens, UniProt Q9Y4B6); experiment: DCAF1 binding assay by SPR (Biacore 8K+), DCAF1-3 KD; conditions: 25 °C, read-out: DCAF1-3 SPR (KD)
T1 construct: DCAF1 WD40 domain (residues 1077-1390)
T1 sequence (Q9Y4B6 1077-1390): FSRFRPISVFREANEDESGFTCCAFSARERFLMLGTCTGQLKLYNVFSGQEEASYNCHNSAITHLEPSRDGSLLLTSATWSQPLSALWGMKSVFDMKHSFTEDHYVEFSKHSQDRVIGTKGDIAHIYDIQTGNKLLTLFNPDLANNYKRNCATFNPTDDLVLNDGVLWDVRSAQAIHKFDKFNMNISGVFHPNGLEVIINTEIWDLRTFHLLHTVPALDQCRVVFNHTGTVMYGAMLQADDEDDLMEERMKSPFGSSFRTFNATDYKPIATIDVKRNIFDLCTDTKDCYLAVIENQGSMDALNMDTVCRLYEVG

| Kd [µM] | Compound |
| --- | --- |
| > 200 | NCCc1ccc(N2CCC[C@@H](Nc3cc(N4CCOCC4)ccn3)C2)cc1 [I-871] |
| > 200 | c1cc(N2CCOCC2)cc(N[C@@H]2CCCN(c3ccc4c(c3)CCC4)C2)n1 [I-872] |
| > 200 | OCCCc1ccc(N2CCC[C@@H](Nc3cc(N4CCOCC4)ccn3)C2)cc1 [I-873] |
| < 10 | NC(=O)CCc1cc(N2CCC[C@H]3[C@@H]2CCN3c2cc(N3CCCCC3)ccn2)ccc1F [I-874] |
| 10 to 100 | NC(=O)CCc1cc(N2CCC[C@@H]3[C@H]2CCN3c2cc(N3CCCCC3)ccn2)ccc1F [I-875] |
| < 10 | Cc1c(F)ccc(F)c1-c1c(C(=O)N[C@@H](CC(=O)N2CCNCC2)c2cccc(Cl)c2)c[nH]c1C#N [I-876] |
| < 10 | Cc1c(F)ccc(F)c1-c1[nH]ncc1C(=O)N[C@@H](CC(=O)N1CC(O)C1)c1cccc(Cl)c1 [I-877] |
| < 10 | Cc1c(F)ccc(F)c1-c1[nH]ncc1C(=O)N[C@@H](CC(=O)N1CC(N(C)C)C1)c1cccc(Cl)c1 [I-878] |
| 10 to 100 | NC(=O)CCc1cccc(N2CCC[C@@H]3[C@H]2CCN3c2cc(N3CCCCC3)ccn2)c1 [I-879] |
| < 10 | CNC1CN(C(=O)C[C@H](NC(=O)c2cn[nH]c2-c2c(F)ccc(F)c2C)c2cccc(Cl)c2)C1 [I-880] |
| < 10 | NC(=O)CCc1cccc(N2CCC[C@H]3[C@@H]2CCN3c2cc(N3CCCCC3)ccn2)c1 [I-881] |
| < 10 | Cc1c(F)ccc(F)c1-c1c(C(=O)N[C@@H](CC(N)=O)c2cccc(Cl)c2)c[nH]c1S(C)(=O)=O [I-882] |
| < 10 | Cc1c(F)ccc(F)c1-c1[nH]ncc1C(=O)N[C@@H](CC(=O)N1CCC(O)C1)c1cccc(Cl)c1 (stereo partly shown) [I-883] |
| < 10 | Cc1c(F)ccc(F)c1-c1[nH]ncc1C(=O)N[C@@H](CC(=O)N1CCN(C(=O)OCc2ccccc2)CC1)c1cccc(Cl)c1 [I-884] |
| < 10 | Cc1c(F)ccc(F)c1-c1[nH]ncc1C(=O)N[C@@H](CC(=O)N1CCNCC1)c1cccc(Cl)c1 [I-885] |
| < 10 | Cc1c(F)ccc(F)c1-c1c(C(=O)N[C@@H](CC(N)=O)c2cccc(Cl)c2)cn(C)c1C(=O)c1ccccc1 [I-886] |
| > 200 | Cc1sc2c(c1C)C(c1ccc(Cl)cc1)=N[C@@H](CC(=O)NCCOCCOCCOCCOCCOCCOCCOCCn1cc(C(=O)N[C@@H](CC(N)=O)c3cccc(Cl)c3)c(-c3ccccc3F)n1)c1nnc(C)n1-2 [I-888] |
| > 200 | Cc1sc2c(c1C)C(c1ccc(Cl)cc1)=N[C@@H](CC(=O)NCCOCCOCCOCCOCCOCCOCCn1cc(C(=O)N[C@@H](CC(N)=O)c3cccc(Cl)c3)c(-c3ccccc3F)n1)c1nnc(C)n1-2 [I-889] |
| < 10 | Cc1sc2c(c1C)C(c1ccc(Cl)cc1)=N[C@@H](CC(=O)NCCOCCOCCOCCOCCC1CCN(c3ccnc(N4CC[C@@H]5[C@H]4CCCN5c4cccc(F)c4)c3)CC1)c1nnc(C)n1-2 [I-890] |
| < 10 | Cc1sc2c(c1C)C(c1ccc(Cl)cc1)=N[C@@H](CC(=O)NCCOCCOCCOCCOCCOCCC1CCN(c3ccnc(N4CC[C@@H]5[C@H]4CCCN5c4cccc(F)c4)c3)CC1)c1nnc(C)n1-2 [I-891] |
| > 200 | Cc1sc2c(c1C)C(c1ccc(Cl)cc1)=N[C@@H](CC(=O)NCCCCCCCCCCCCC(=O)c1[nH]cc(C(=O)C[C@@H](CC(N)=O)c3cccc(Cl)c3)c1-c1ccccc1F)c1nnc(C)n1-2 [I-892] |
| > 200 | Cc1sc2c(c1C)C(c1ccc(Cl)cc1)=N[C@@H](CC(=O)NCCCCCCCCCCCCCCCCCC(=O)c1[nH]cc(C(=O)N[C@@H](CC(N)=O)c3cccc(Cl)c3)c1-c1ccccc1F)c1nnc(C)n1-2 [I-893] |
| > 200 | Cc1sc2c(c1C)C(c1ccc(Cl)cc1)=N[C@@H](CC(=O)NCCCCCCCCCCCCCCCCCCCCC(=O)c1[nH]cc(C(=O)N[C@@H](CC(N)=O)c3cccc(Cl)c3)c1-c1ccccc1F)c1nnc(C)n1-2 [I-894] |
| 10 to 100 | Cc1sc2c(c1C)C(c1ccc(Cl)cc1)=N[C@@H](CC(=O)NCCOCCOCCOCCOCCOCCOCCC1CCN(c3ccnc(N4CC[C@@H]5[C@H]4CCCN5c4cccc(F)c4)c3)CC1)c1nnc(C)n1-2 [I-895] |
| < 10 | Cc1sc2c(c1C)C(c1ccc(Cl)cc1)=N[C@@H](CC(=O)NCCOCCOCCOCCOCC(=O)c1[nH]cc(C(=O)N[C@@H](CC(N)=O)c3cccc(Cl)c3)c1-c1ccccc1F)c1nnc(C)n1-2 [I-896] |
| < 10 | Cc1sc2c(c1C)C(c1ccc(Cl)cc1)=N[C@@H](CC(=O)NCCOCCOCCOCCOCCOCC(=O)c1[nH]cc(C(=O)N[C@@H](CC(N)=O)c3cccc(Cl)c3)c1-c1ccccc1F)c1nnc(C)n1-2 [I-897] |
| < 10 | Cc1sc2c(c1C)C(c1ccc(Cl)cc1)=N[C@@H](CC(=O)NCCOCCOCCOCCOCCOCCOCC(=O)c1[nH]cc(C(=O)N[C@@H](CC(N)=O)c3cccc(Cl)c3)c1-c1ccccc1F)c1nnc(C)n1-2 [I-898] |

| Kd [µM] | Compound |
| --- | --- |
| < 10 | Cc1sc2c(c1C)C(c1ccc(Cl)cc1)=N[C@@H](CC(=O)N(C)CCOCCOCCOCCOCCOCC(=O)c1[nH]cc(C(=O)N[C@@H](CC(N)=O)c3cccc(Cl)c3)c1-c1ccccc1F)c1nnc(C)n1-2 [I-900] |
| > 200 | Cc1sc2c(c1C)C(c1ccc(Cl)cc1)=N[C@@H](CC(=O)NCCCCCCCCCCCCCCCCCC1CCN(c3ccnc(N4CC[C@@H]5[C@H]4CCCN5c4cccc(F)c4)c3)CC1)c1nnc(C)n1-2 [I-901] |
| > 200 | Cc1sc2c(c1C)C(c1ccc(Cl)cc1)=N[C@@H](CC(=O)NCCCCCCCCCCCCCCC1CCN(c3ccnc(N4CC[C@@H]5[C@H]4CCCN5c4cccc(F)c4)c3)CC1)c1nnc(C)n1-2 [I-902] |
| > 200 | Cc1sc2c(c1C)C(c1ccc(Cl)cc1)=N[C@@H](CC(=O)NCCCCCCCCCCCCCCCCCCCCC1CCN(c3ccnc(N4CC[C@@H]5[C@H]4CCCN5c4cccc(F)c4)c3)CC1)c1nnc(C)n1-2 [I-903] |
| 10 to 100 | C=CC(=O)N(CCCCN1CCN(c2ccnc(N[C@@H]3CCCN(c4cccc(F)c4)C3)c2)CC1)CCOCCOCCNC(=O)C[C@@H]1N=C(c2ccc(Cl)cc2)c2c(sc(C)c2C)-n2c(C)nnc21 [I-904] |
| 100 to 200 | C=CC(=O)NCCCCN1CCN(c2ccnc(N(CCCOCCOCCOCCOCCNC(=O)C[C@@H]3N=C(c4ccc(Cl)cc4)c4c(sc(C)c4C)-n4c(C)nnc43)[C@@H]3CCCN(c4cccc(F)c4)C3)c2)CC1 [I-906] |
| < 10 | Cc1sc2c(c1C)C(c1ccc(Cl)cc1)=N[C@@H](CC(=O)NCCOCCOCCOCCCc1ccc(C(=O)c3[nH]cc(C(=O)N[C@@H](CC(N)=O)c4cccc(Cl)c4)c3-c3c(F)ccc(F)c3C)cc1)c1nnc(C)n1-2 [I-908] |
| < 10 | Cc1ccc(F)c(C)c1-c1c(C(=O)N[C@@H](CC(N)=O)c2cccc(Cl)c2)c[nH]c1C(=O)COCCOCCOCCOCCOCCNC(=O)C[C@@H]1N=C(c2ccc(Cl)cc2)c2c(sc(C)c2C)-n2c(C)nnc21 [I-909] |
| < 10 | CNC(=O)C[C@H](NC(=O)c1c[nH]c(C(=O)COCCOCCOCCOCCOCCNC(=O)C[C@@H]2N=C(c3ccc(Cl)cc3)c3c(sc(C)c3C)-n3c(C)nnc32)c1-c1c(F)ccc(F)c1C)c1cccc(Cl)c1 [I-910] |
| < 10 | Cc1sc2c(c1C)C(c1ccc(Cl)cc1)=N[C@@H](CC(=O)NCCOCCOCCOCCOCCOCC(=O)c1[nH]cc(C(=O)N[C@@H](CC(=O)N(C)C)c3cccc(Cl)c3)c1-c1c(F)ccc(F)c1C)c1nnc(C)n1-2 [I-911] |
| < 10 | Cc1sc2c(c1C)C(c1ccc(Cl)cc1)=N[C@@H](CC(=O)NCCOCCOCCOCCOCCOCC(=O)c1c(-c3c(F)ccc(F)c3C)c(C(=O)N[C@@H](CC(N)=O)c3cccc(Cl)c3)cn1C)c1nnc(C)n1-2 [I-912] |
| < 10 | Cc1sc2c(c1C)C(c1ccc(Cl)cc1)=N[C@@H](CC(=O)NCCOCCOCCOCCOCCCc1ccc(C(=O)c3[nH]cc(C(=O)N[C@@H](CC(=O)N4CCNCC4)c4cccc(Cl)c4)c3-c3c(F)ccc(F)c3C)cc1)c1nnc(C)n1-2 [I-913] |
| < 10 | Cc1sc2c(c1C)C(c1ccc(Cl)cc1)=N[C@@H](CC(=O)NCCOCCOCCOCCOCCCc1ccc(C(=O)c3[nH]cc(C(=O)N[C@@H](CC(=O)N4CCN(C(=O)OCc5ccccc5)CC4)c4cccc(Cl)c4)c3-c3c(F)ccc(F)c3C)cc1)c1cnc(C)n1-2 [I-914] |
| < 10 | Cc1sc2c(c1C)C(c1ccc(Cl)cc1)=N[C@@H](CC(=O)NCCOCCOCCOCCOCCCc1ccc(C(=O)c3c(-c4c(F)ccc(F)c4C)c(C(=O)N[C@@H](CS(C)(=O)=O)c4cccc(Cl)c4)cn3C)cc1)c1nnc(C)n1-2 [I-915] |
| < 10 | Cc1cc(CCCOCCOCCOCCOCCOCCN)cc(F)c1-c1c(C(=O)N[C@@H](CC(N)=O)c2cccc(Cl)c2)c[nH]c1C#N [I-918] |
| 10 to 100 | Oc1ccc(C2CCCCC2)cc1N[C@@H]1CCCN(c2cccc(F)c2)C1 [I-921] |
| 10 to 100 | COCCN(C)CC1CCN(c2ccnc(N3CC[C@@H]4[C@H]3CCCN4c3cccc(F)c3)c2)CC1 [I-922] |
| < 10 | Cc1c(F)ccc(F)c1-c1cn(C)cc1C(=O)N[C@@H](CC(N)=O)c1cccc(Cl)c1 [I-924] |
| 100 to 200 | OC1(c2ccccc2)CCC[C@@H](Nc2cc(N3CCCCC3)ccn2)C1 (stereo partly shown) [I-925] |
| 10 to 100 | O[C@@]1(c2ccccc2)CCC[C@@H](Nc2cc(N3CCCCC3)ccn2)C1 [I-929] |
| 10 to 100 | Nc1ccc(N[C@@H]2CCCN(c3cccc(F)c3)C2)cc1C1CCCCC1 [I-930] |
| < 10 | COCCOCC[C@H]1CN(c2cc(N3CCCCC3)ccn2)[C@@H]2CCCN(c3cccc(F)c3)[C@H]12 [I-931] |
| < 10 | COCCOCC[C@@H]1CN(c2cc(N3CCCCC3)ccn2)[C@H]2CCCN(c3cccc(F)c3)[C@@H]12 [I-934] |
| 10 to 100 | OC[C@H]1C[C@@H](Nc2cc(N3CCCCC3)ccn2)CN(c2cccc(F)c2)C1 [I-936] |
| < 10 | NC(=O)Cc1cccc(N2CCC[C@H]3[C@@H]2CCN3c2cc(N3CCCCC3)ccn2)c1 [I-942] |
| < 10 | Cc1c(F)ccc(F)c1-c1c(C(=O)N[C@@H](CC(N)=O)c2cccc(Cl)c2)csc1C(=O)c1ccccc1 [I-944] |

| Compound | Kd [µM] |
| --- | --- |
| O=[N+]([O-])c1ccc(N2CCC[C@@H](n3ccc4c(N5CCCCC5)ccnc43)C2)cc1F [I-917] | < 10 |

same assay, conditions: DCAF1-3 SPR (KD), 25 °C

| Kd [µM] | Compound |
| --- | --- |
| < 10 | Cc1c(F)ccc(F)c1-c1c(C(=O)N[C@@H](CC(N)=O)c2cccc(Cl)c2)cn(C)c1C#N [I-887, (S)—N-(3-amino-1-(3-chlorophenyl)-3-oxopropyl)-5-cyano-4-(3,6-difluoro-2-methylphenyl)-1-methyl-1H-pyrrole-3-carboxamide] |
